Results on four molecules are retold here after patent publication US9044388B2, “Dry eye treatment” (Ocular Research of Boston, Inc., priority 2005, dated 2015).

The conditions of series [1]: result in words; cited from earlier work.
The test system of series [2] is eye. The series can be described thus: Subjective sensation / stinging of emulsions and their surfactants on the eye. Conditions: higher concentration as sole primary surfactant. Format: in vivo, human. The procedure:
The subjective sensation realized with both formulations was evaluated as comfortable, and without any form of adverse sensation.

In series [3] the test system is eye. Particulars: in vivo; cited from earlier work.
The next series has as its system ocular surface. Description: Evaluation of comfort on the eye (sensation after one drop). Format: in vivo, human. Particulars: even in concentrations ≦0.10%. The procedure: The vehicle used for all formulations was Unisol 4, a buffered saline solution marketed by Alcon Laboratories, Fort Worth, Tex. Unisol 4 had previously been studied and found to be the most comfortable normal saline product for use on the ocular surface. It was therefore used as a vehicle for the test formulations, and was also used as a control. A drop of each of the 5 test formulations was placed on to the ocular surfaces of each subject, utilizing a 15 ml dropper container that delivered a drop of 40 μl to the ocular surface. […] The results obtained with 6 subjects, all of whom evaluated each of the test formulation on two different days are summarized in Table 3.

For `CCCCCCCCCCCCCCCCCC(=O)OCC(O)CO` (stereo not shown) [GMS, glycerol monostearate], the solubility entry in series [1] was “oil soluble”.
Consider `CCCCCCCC/C=C\CCCCCCCC(=O)OCCOCC(OCCO)C1OCC(OCCO)C1OCCO` (stereo not shown) [Polysorbate-80], for which the “effect of higher surfactant concentration on the eye” value in the series on eye [2] is “led to stinging on the eye”.
Take polyoxyethylene (40) stearate [Myrj-52]: the “ocular discomfort on increasing the concentration” value with eye [3] was “significant stinging”.
In the case of sorbitan monolaurate [Span 20], the “sting when applied to the eye and ocular surfaces” value in the series with ocular surface is “sting”.
